# Results taken from patent US20240287108A1, “nSMASE2 INHIBITOR PRODRUGS WITH ENHANCED ORAL AND BRAIN EXPOSURES” (The Johns Hopkins University, priority 2021, published 2024).
# Like-named read-outs stand apart in the source and are kept apart here.
# Assays:
# [1] = time-dependent oral pharmacokinetics in mice; format: in vivo, mouse
# Protocol: As described earlier, we identified P1 and P18 as the most promising candidates for time dependent PK.
# All PK studies in mice were conducted according to protocols approved by the Animal Care and Use Committee at Johns Hopkins University. Male CD-1 mice between 25 and 30 g were obtained from Harlan and maintained on a 12 h light-dark cycle with ad libitum access to food and water. […] All of the formulations were freshly prepared prior to the dosing. The mice were sacrificed at specified time points (either 2 h or 0.25, 0.5, 1, 2, 4, 6, and 8 h) post drug administration. For the collection of plasma and brain tissue, animals were euthanized with CO2, and blood samples were collected in heparinized microtubes by cardiac puncture. Brains were dissected and immediately flash frozen (−80° C.) Blood samples were spun at 2000 g for 15 min, and plasma was removed and stored at −80° C. until LC-MS/MS analysis. Prior to extraction, frozen samples were thawed on ice.
# Brain tissues were diluted 1:5 w/v with acetonitrile containing losartan (0.5 μm) and homogenized, followed by vortex-mixing and centrifugation at 10,000 g for 10 min at 4° C. A 50 μL aliquot of the supernatant were diluted with 50 uL of water and transferred to 250 μL polypropylene autosampler vials sealed with teflon caps. Then, 2 μL of the sample were injected into the LC/MS/MS system for analysis. Chromatographic analysis was performed using an Accela ultra-high-performance system consisting of an analytical pump and an autosampler coupled with a TSQ Vantage mass spectrometer. […] The mobile phase consisted of 0.1% formic acid in acetonitrile and 0.1% formic acid in water with gradient elution were used. […] Plasma concentrations (nmol/ml) as well as brain tissue concentrations (nmol/g) were determined and plots of mean plasma concentration versus time were constructed. Non-compartmental analysis modules in Phoenix WinNonlin version 7.0 (Certara USA, Inc., Princeton, NJ) were used to quantify exposures (AUC0-t).
# [2] = in vitro stability in CES1−/− mouse brain homogenates; format: in vitro ADME; conditions: CES1−/− mouse brain homogenate, 10 μM, 37° C.
# Protocol: (§1) All synthesized prodrugs were next screened for in vitro stability in carboxylesterase 1 knockout (CES1^−/−) mouse plasma, as well as CES1^−/− mouse brain and liver homogenates (Table 2-1). We have previously reported that CES1^−/− mouse model recapitulates human prodrug metabolism.
# (§2) For the tissue homogenates, washed tissues were diluted 10-fold in 0.1 M potassium phosphate buffer and homogenized using a probe sonicator. To evaluate the stability of the intact prodrug over time, each of the crude homogenates and plasma were aliquoted to 1 mL and then spiked with a final assay concentration of 10 μM of each prodrug followed by incubation in an orbital shaker at 37° C. for 1 h (in triplicate). Sample from each incubation at predetermined time points (0 min, and 1 h) was quenched with three volumes of acetonitrile containing the internal standard (IS; losartan: 0.5 μm). Samples were vortex-mixed for 30 secs and centrifuged at 10,000×g for 10 min at 4° C. Disappearance of intact prodrugs from these samples were performed on a Dionex ultra-high-performance LC system coupled with Q Exactive Focus orbitrap mass spectrometer (Thermo Fisher Scientific Inc., Waltham MA). […] The mobile phase consisted of 0.1% formic acid in water and 0.1% formic acid in acetonitrile. Pumps were operated at a flow rate of 0.4 mL/min for 9 min using gradient elution. The mass spectrometer controlled by Xcalibur software 4.0.27.13 (Thermo Scientific) was operated with a heated electrospray ionization (HESI) ion source in positive ionization mode. Quantification of the prodrugs were performed in the full-scan mode (from m/z 50 to 1600) by comparing t=0 samples with t=60 min samples.
# [3] = in vitro stability in CES1−/− mouse liver homogenates; format: in vitro ADME; conditions: CES1−/− mouse liver homogenate, 10 μM, 37° C.
# Protocol: as §1, §2
# [4] = in vitro stability in CES1−/− mouse plasma; format: in vitro ADME; conditions: CES1−/− mouse plasma, 10 μM, 37° C.
# Protocol: as §1, with “metabolism. Tenora et al., 2019.” for “metabolism.”
# Zimmermann et al., 2018. For the tissue homogenates, washed tissues were diluted 10-fold in 0.1 M potassium phosphate buffer and homogenized using a probe sonicator. To evaluate the stability of the intact prodrug over time, each of the crude homogenates and plasma were aliquoted to 1 mL and then spiked with a final assay concentration of 10 μM of each prodrug followed by incubation in an orbital shaker at 37° C. for 1 h (in triplicate). Sample from each incubation at predetermined time points (0 min, and 1 h) was quenched with three volumes of acetonitrile containing the internal standard (IS; losartan: 0.5 μm). Samples were vortex-mixed for 30 secs and centrifuged at 10,000×g for 10 min at 4° C. Disappearance of intact prodrugs from these samples were performed on a Dionex ultra-high-performance LC system coupled with Q Exactive Focus orbitrap mass spectrometer (Thermo Fisher Scientific Inc., Waltham MA). The separation of analytes was achieved using the Agilent Eclipse Plus column (100×2.1 mm i.d.; maintained at 35° C.) packed with a 1.8 μm C18 stationary phase. The mobile phase consisted of 0.1% formic acid in water and 0.1% formic acid in acetonitrile. Pumps were operated at a flow rate of 0.4 mL/min for 9 min using gradient elution. The mass spectrometer controlled by Xcalibur software 4.0.27.13 (Thermo Scientific) was operated with a heated electrospray ionization (HESI) ion source in positive ionization mode. Quantification of the prodrugs were performed in the full-scan mode (from m/z 50 to 1600) by comparing t=0 samples with t=60 min samples.
# [5] = solubility of P18 in water and in Soluplus®/Labrasol® micelle formulation; format: physicochemical
# Text: In contrast, the solubility of the prodrugs, e.g., P18 in the micelle formulation were improved as presented below.
structure (smiles),measurement,setting,value
"CCC1CC(N2CCCCC2)CC(CC)N1C(=O)Oc1c(OC)cc(-c2nc(-c3ccccc3)c(-c3cccs3)[nH]2)cc1OC (centres unmarked) [Compound P18, 2,6-Dimethoxy-4-(5-phenyl-4-(thiophen-2-yl)-1H-imidazol-2-yl)phenyl 2′,6′-diethyl-[1,4′-bipiperidine]-1′-carboxylate]",plasma exposure of the intact compound (AUC0-t),[1]; oral 10 mg/kg DPTIP equivalent,969 pmol·h/mL
same,conversion of prodrug to DPTIP in vivo,[1]; oral 10 mg/kg DPTIP equivalent (P18: in the brain),> 50%
same,"Stability in mouse (% remaining at 1h) Mean + Std Error, Brain",[2],100 ± 1%
same,"Stability in mouse (% remaining at 1h) Mean + Std Error, Liver",[3],100 ± 3%
same,"Stability in mouse (% remaining at 1h) Mean + Std Error, Plasma",[4],92 ± 7%
same,solubility,"[5]; Labrasol micelles in water, aqueous with cosolvent or surfactant or cyclodextrin, solid dispersion in Labrasol®, hydrated with water, read-out: solubility in micelle formulation",1700 µg/mL
same,solubility,"[5]; Soluplus micelles in water, aqueous with cosolvent or surfactant or cyclodextrin, solid dispersion in Soluplus®, hydrated with water, read-out: solubility in micelle formulation",1700 µg/mL
same,solubility,"[5]; water, read-out: solubility in water",< 500 µg/mL
